Assay results: patent US20260070924A1, “INDAZOLE MACROCYCLES AND THEIR USE” (BLOSSOMHILL THERAPEUTICS, INC., priority 2022, published 2026)
Like-named read-outs stand apart in the source and are kept apart here.

Experiments:
MV-4-11 cells = test: MV-4-11 cell proliferation assay (CellTiter-Glo 2.0); format: cell-based; details: MV-4-11, 384-well, 11-dose dilution series, read-out: IC50, inhibition of MV-4-11 cell proliferation
Experimental: MV-4-11 cell line was purchased from ATCC and maintained in RPMI medium supplemented with 10% fetal bovine serum and 100 U/mL of penicillin/streptomycin. One thousand MV-4-11 cells/50 μl per well were seeded in white 384-well plate, followed by treatment with indicated compounds in a 11-dose dilution series. Cell proliferation was measured using CellTiter-Glo 2.0 luciferase-based ATP detection assay (Promega, Madison, WI) following the manufacturer's protocol. Plates were then read on a TECAN Sparks multimode microplate reader. Data was analyzed using GraphPad Prism 9 (GraphPad Software, San Diego, CA) to obtain IC50 values.

FLT3 = FLT3 (Homo sapiens (Human), UniProt P36888); test: HotSpot radiometric kinase assay (Reaction Biology); format: biochemical
Sequence of FLT3 (P36888 27-993): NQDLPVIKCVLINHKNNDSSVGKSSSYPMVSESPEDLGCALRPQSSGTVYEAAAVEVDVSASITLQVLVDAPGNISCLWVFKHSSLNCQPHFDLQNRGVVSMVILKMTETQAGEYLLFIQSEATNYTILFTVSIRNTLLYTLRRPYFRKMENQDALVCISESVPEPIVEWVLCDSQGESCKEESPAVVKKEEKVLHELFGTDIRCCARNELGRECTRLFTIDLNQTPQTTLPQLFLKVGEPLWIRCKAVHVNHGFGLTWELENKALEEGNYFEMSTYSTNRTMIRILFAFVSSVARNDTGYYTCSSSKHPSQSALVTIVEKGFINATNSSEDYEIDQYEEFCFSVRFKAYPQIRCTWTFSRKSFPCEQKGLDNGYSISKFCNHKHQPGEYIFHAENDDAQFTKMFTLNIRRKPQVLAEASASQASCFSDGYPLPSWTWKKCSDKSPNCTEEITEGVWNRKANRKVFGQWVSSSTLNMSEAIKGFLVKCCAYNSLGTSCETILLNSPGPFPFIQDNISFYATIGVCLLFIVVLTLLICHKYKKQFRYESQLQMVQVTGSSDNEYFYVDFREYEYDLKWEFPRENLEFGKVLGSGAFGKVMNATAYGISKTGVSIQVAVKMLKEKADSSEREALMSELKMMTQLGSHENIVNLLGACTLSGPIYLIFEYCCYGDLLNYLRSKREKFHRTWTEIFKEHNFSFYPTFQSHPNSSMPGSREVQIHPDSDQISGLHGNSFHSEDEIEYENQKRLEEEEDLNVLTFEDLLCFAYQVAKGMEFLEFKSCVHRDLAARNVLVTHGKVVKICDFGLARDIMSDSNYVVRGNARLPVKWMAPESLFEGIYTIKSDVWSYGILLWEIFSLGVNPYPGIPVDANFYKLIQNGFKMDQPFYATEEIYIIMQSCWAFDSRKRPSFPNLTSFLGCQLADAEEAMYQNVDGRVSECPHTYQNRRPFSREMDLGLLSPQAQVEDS
Experimental: (§2) Briefly, specific kinase/substrate pairs along with required cofactors were prepared in reaction buffer; 20 mM Hepes pH 7.5, 10 mM MgCl2, 1 mM EGTA, 0.02% Brij35, 0.02 mg/ml BSA, 0.1 mM Na3VO4, 2 mM DTT, 1% DMSO. Compounds were delivered into the reaction, followed ˜20 minutes later by addition of a mixture of ATP (Sigma, St. Louis MO) and ^33P ATP (Perkin Elmer, Waltham MA) to a final concentration of 10 M. Reactions were carried out at room temperature for 120 min, followed by spotting of the reactions onto P81 ion exchange filter paper (Whatman Inc., Piscataway, NJ). Unbound phosphate was removed by extensive washing of filters in 0.75% phosphoric acid. […] IC50 values and curve fits were obtained using Prism (GraphPad Software).

FLT3-ITD = FLT3-ITD (Homo sapiens, UniProt P36888, ITD); test: as above; format: biochemical
Sequence of FLT3-ITD (P36888 whole entry, looked up, change not shown): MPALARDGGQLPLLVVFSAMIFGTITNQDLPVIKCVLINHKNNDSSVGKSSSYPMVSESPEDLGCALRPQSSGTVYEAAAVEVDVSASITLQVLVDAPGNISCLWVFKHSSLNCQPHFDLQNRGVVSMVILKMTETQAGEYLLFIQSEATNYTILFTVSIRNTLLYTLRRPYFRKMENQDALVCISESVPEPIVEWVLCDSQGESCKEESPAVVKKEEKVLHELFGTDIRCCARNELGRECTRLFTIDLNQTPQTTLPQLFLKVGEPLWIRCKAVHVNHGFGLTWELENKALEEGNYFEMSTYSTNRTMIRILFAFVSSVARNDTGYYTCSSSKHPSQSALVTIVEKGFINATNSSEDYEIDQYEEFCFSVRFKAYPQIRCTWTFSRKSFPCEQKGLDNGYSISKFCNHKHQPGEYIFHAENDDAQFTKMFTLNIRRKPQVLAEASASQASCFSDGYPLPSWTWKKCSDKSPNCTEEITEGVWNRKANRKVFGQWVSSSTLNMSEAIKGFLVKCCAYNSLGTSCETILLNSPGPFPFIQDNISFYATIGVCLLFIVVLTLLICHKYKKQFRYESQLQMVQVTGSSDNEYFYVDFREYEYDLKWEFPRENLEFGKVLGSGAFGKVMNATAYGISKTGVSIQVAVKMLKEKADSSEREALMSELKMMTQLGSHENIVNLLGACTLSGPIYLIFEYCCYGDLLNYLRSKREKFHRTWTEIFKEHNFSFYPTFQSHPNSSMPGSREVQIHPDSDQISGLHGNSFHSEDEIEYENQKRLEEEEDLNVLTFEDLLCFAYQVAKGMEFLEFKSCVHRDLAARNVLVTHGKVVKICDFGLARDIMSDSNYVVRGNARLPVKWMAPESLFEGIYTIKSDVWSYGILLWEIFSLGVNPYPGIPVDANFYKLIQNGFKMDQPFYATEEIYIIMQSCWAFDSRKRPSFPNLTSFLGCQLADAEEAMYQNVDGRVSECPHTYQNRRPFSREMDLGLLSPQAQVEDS
Experimental: as §2

CLK1 = CLK1 (Homo sapiens (Human), UniProt P49759); test: CLK kinase activity assay (ADP-Glo); format: biochemical
Sequence of CLK1 (P49759 whole entry): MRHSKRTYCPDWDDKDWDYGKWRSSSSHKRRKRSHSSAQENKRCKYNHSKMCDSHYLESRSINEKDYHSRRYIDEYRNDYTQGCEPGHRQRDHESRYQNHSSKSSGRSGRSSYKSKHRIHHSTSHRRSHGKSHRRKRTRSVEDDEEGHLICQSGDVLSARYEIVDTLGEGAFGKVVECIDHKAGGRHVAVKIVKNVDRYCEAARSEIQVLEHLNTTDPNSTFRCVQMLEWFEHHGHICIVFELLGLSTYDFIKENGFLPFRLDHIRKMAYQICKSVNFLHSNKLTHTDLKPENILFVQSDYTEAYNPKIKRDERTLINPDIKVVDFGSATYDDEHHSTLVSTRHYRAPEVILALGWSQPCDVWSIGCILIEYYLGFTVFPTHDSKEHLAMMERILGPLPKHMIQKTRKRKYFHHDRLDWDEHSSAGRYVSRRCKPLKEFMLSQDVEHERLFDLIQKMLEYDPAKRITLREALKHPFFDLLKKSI
Experimental: (§1) Kinase protein and substrate were pre-diluted in the HEPES assay buffer (100 mM HEPES, pH 7.5, 0.01% Triton X-100, 0.1% BSA, 5 mM MgCl2, 1 mM DTT, 10 μM Sodium Orthovanadate, 10 μM Beta-Glycerophosphate) dispensed into 384 well plate (5 μL per well). Control samples (0%-inhibition in the absence of inhibitor, DMSO only) and 100%-inhibition (in the absence of enzyme) were assembled in replicates of six and were used to calculate %-inhibition in the presence of compounds. Test compounds were added to the protein samples by acoustic dispensing (Labcyte Echo550). Concentration of DMSO was equalized to 1% in all samples. Reactions were initiated by addition of ATP by acoustic dispensing (Labcyte Echo550) and incubated according to assay specific incubation time. After incubation, 5 uL of Promega ADP-Glo reagent was added and incubated for 40 minutes. After 40 minutes, 10 uL of Promega kinase detection reagent was added. After 10 min of incubation with Kinase detection reagent, the luminescence was read on microplate reader (Biotek Synergy).

CLK4 = CLK4 (Homo sapiens (Human), UniProt Q9HAZ1); test: CLK kinase activity assay (ADP-Glo); format: biochemical
Sequence of CLK4 (Q9HAZ1 whole entry): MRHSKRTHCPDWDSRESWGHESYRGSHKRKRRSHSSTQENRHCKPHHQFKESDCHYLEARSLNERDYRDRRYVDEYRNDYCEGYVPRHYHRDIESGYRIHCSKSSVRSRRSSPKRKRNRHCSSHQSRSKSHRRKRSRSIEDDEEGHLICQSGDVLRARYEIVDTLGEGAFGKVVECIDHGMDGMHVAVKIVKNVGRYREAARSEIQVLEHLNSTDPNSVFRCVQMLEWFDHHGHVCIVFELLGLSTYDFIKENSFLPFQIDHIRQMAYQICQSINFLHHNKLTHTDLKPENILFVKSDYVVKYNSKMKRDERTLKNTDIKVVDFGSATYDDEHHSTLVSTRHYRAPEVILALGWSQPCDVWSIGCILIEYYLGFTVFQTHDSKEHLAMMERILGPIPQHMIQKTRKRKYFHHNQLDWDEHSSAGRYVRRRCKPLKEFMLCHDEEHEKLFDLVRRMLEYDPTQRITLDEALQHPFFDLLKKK
Experimental: as §1

CLK2 = CLK2 (Homo sapiens (Human), UniProt P49760); test: CLK kinase activity assay (ADP-Glo); format: biochemical
Sequence of CLK2 (P49760 whole entry): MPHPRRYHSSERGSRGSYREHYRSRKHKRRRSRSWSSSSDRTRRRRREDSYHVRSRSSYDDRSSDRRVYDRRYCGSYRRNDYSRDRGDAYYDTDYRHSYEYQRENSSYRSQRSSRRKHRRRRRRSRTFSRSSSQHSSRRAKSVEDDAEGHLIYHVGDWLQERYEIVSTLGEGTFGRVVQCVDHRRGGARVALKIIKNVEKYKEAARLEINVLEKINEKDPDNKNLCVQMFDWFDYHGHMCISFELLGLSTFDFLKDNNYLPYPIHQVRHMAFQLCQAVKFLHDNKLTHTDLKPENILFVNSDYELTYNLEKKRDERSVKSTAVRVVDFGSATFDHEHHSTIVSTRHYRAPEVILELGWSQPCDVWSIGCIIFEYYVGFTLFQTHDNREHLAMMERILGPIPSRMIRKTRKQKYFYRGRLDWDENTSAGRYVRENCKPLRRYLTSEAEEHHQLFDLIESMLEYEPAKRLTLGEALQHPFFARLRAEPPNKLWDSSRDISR
Experimental: as §1

CLK3 = CLK3 (Homo sapiens (Human), UniProt P49761); test: CLK kinase activity assay (ADP-Glo); format: biochemical
Sequence of CLK3 (P49761 whole entry): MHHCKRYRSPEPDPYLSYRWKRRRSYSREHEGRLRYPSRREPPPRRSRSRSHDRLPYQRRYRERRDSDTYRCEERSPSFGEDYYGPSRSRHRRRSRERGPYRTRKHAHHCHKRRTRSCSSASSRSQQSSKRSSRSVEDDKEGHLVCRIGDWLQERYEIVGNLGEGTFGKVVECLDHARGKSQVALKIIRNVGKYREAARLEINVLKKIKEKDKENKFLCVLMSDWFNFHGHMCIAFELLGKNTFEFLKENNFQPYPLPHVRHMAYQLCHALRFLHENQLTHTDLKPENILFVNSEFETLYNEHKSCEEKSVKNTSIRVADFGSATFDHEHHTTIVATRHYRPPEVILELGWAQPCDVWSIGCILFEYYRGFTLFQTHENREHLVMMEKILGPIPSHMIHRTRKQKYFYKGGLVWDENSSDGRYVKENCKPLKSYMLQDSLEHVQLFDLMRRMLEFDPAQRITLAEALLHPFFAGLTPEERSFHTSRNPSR
Experimental: as §1

With CCc1c2c(nn1C)C(=O)N(C)CCOc1ccc(F)cc1-c1ccc3[nH]nc(c3c1)/C=C/2 [Ex. 1, (18E)-17-ethyl-7-fluoro-13,16-dimethyl-2,12,13,16-tetrahydro-3,5-ethenodipyrazolo[3,4-f:3′,4′-j][1,4]benzoxazacyclopentadecin-14(11H)-one] the IC50 (MV-4-11 cells; Homo sapiens, MV4-11) was 1160 nM.

CCOc1nn(C)c2c1/C=C/c1n[nH]c3ccc(cc13)-c1cnn(C)c1OCCN(C)C2=O [Ex. 22, (17E)-16-ethoxy-8,12,14-trimethyl-2,11,12,14-tetrahydro-8H-3,5-ethenotripyrazolo[3,4-f:3′,4′-j:4″,3″-n][1,4]oxazacyclopentadecin-13(10H)-one] gave an IC50 (FLT3) of 0.093 nM, an IC50 (FLT3-ITD) of 0.527 nM and an IC50 (CLK1) of 0.355 nM. The IC50 (CLK4) was 0.668 nM, the IC50 (CLK2) was 0.253 nM and the IC50 (CLK3) was 9.47 nM. The IC50 (MV-4-11 cells; Homo sapiens, MV4-11) was < 0.2 nM.

Cc1c2c(nn1C)C(=O)NCCOc1c(cnn1C)-c1ccc3[nH]nc(c3c1)/C=C/2 [Ex. 10, (17E)-8,15,16-trimethyl-2,11,12,15-tetrahydro-8H-3,5-ethenotripyrazolo[3,4-f:3′,4′-j:4″,3″-n][1,4]oxazacyclopentadecin-13(10H)-one] gave an IC50 (MV-4-11 cells; Homo sapiens, MV4-11) of 865 nM.

Cc1nn(C)c2c1/C=C/c1n[nH]c3ccc(cc13)-c1cnn(C)c1OCCOCCN(C)C2=O [compound 14, (15E)-3,10,12,14-tetramethyl-5,6,9,10,12,18-hexahydro-3H-19,21-ethenotripyrazolo[3,4-i:3′,4′-m:4″,3″-q][1,4,7]dioxazacyclooctadecin-11(8H)-one] was tested, and the IC50 (MV-4-11 cells; Homo sapiens, MV4-11) was 384 nM.

For CCc1nn(C)c2c1/C=C/c1n[nH]c3ccc(cc13)-c1cc(F)ccc1OCCN(C)C2=O [Ex. 2, (18E)-17-ethyl-7-fluoro-13,15-dimethyl-2,12,13,15-tetrahydro-3,5-ethenodipyrazolo[3,4-f:3′,4′-j][1,4]benzoxazacyclopentadecin-14(11H)-one], the IC50 (MV-4-11 cells; Homo sapiens, MV4-11) was 353 nM.

Molecule Cc1nn(CCO)c2c1/C=C/c1n[nH]c3ccc(cc13)-c1cnn(C)c1OCCN(C)C2=O [Ex. 16, (17E)-14-(2-hydroxyethyl)-8,12,16-trimethyl-2,11,12,14-tetrahydro-8H-3,5-ethenotripyrazolo[3,4-f:3′,4′-j:4″,3″-n][1,4]oxazacyclopentadecin-13(10H)-one] has an IC50 (CLK1) of 0.299 nM, an IC50 (CLK4) of 0.758 nM and an IC50 (CLK2) of 0.16 nM. For the same molecule, the IC50 (CLK3) was 10.4 nM and the IC50 (MV-4-11 cells; Homo sapiens, MV4-11) was < 1 nM.

CN1CCOc2c(cnn2C)-c2ccc3[nH]nc(c3c2)/C=C/c2cn(C)nc2C1=O [compound 4, (17E)-8,12,15-trimethyl-2,11,12,15-tetrahydro-8H-3,5-ethenotripyrazolo[3,4-f:3′,4′-j:4″,3″-n][1,4]oxazacyclopentadecin-13(10H)-one] gave an IC50 (MV-4-11 cells; Homo sapiens, MV4-11) of 21.2 nM.

For CCc1c2c(nn1C)C(=O)N(C)CCOc1ccc(F)cc1-c1cc(Cl)c3[nH]nc(c3c1)/C=C/2 [compound 5, (18E)-21-chloro-17-ethyl-7-fluoro-13,16-dimethyl-2,12,13,16-tetrahydro-3,5-ethenodipyrazolo[3,4-f:3′,4′-j][1,4]benzoxazacyclopentadecin-14(11H)-one], the IC50 (MV-4-11 cells; Homo sapiens, MV4-11) was > 10000 nM.

With CCc1noc2c1/C=C/c1n[nH]c3ccc(cc13)-c1cnn(C)c1OCCN(C)C2=O [Ex. 25, (17E)-16-ethyl-8,12-dimethyl-2,8,11,12-tetrahydro-3,5-etheno[1,2]oxazolo[5,4-f]dipyrazolo[3,4-j:4′,3′-n][1,4]oxazacyclopentadecin-13(10H)-one] the IC50 (MV-4-11 cells; Homo sapiens, MV4-11) was 0.52 nM.

In the case of Cc1nn(CCN2CCCC2)c2c1/C=C/c1n[nH]c3ccc(cc13)-c1cnn(C)c1OCCN(C)C2=O [Ex. 18, (17E)-8,12,16-trimethyl-14-[2-(pyrrolidin-1-yl)ethyl]-2,11,12,14-tetrahydro-8H-3,5-ethenotripyrazolo[3,4-f:3′,4′-j:4″,3″-n][1,4]oxazacyclopentadecin-13(10H)-one], the IC50 (MV-4-11 cells; Homo sapiens, MV4-11) is reported as 17.8 nM.

Cc1nn(C)c2c1/C=C/c1n[nH]c3ccc(cc13)-c1cnn(C)c1OCCCN(C)C2=O [Ex. 13, (18E)-8,13,15,17-tetramethyl-2,10,11,12,13,15-hexahydro-3,5-ethenotripyrazolo[3,4-g:3′,4′-k:4″,3″-o][1,5]oxazacyclohexadecin-14(8H)-one] showed an IC50 (MV-4-11 cells; Homo sapiens, MV4-11) of 15.5 nM.

[2H]C([2H])([2H])N1CCOc2c(cnn2C)-c2ccc3[nH]nc(c3c2)/C=C/c2c(CC)nn(C([2H])([2H])[2H])c2C1=O [compound 21, (17E)-16-ethyl-8-methyl-12,14-bis[(^2H3)methyl]-2,11,12,14-tetrahydro-8H-3,5-ethenotripyrazolo[3,4-f:3′,4′-j:4″,3″-n][1,4]oxazacyclopentadecin-13(10H)-one] was tested, and the IC50 (MV-4-11 cells; Homo sapiens, MV4-11) was < 0.2 nM.

Cc1c2c(nn1CCN1CCCC1)C(=O)N(C)CCOc1c(cnn1C)-c1ccc3[nH]nc(c3c1)/C=C/2 [Ex. 19, (17E)-8,12,16-trimethyl-15-[2-(pyrrolidin-1-yl)ethyl]-2,11,12,15-tetrahydro-8H-3,5-ethenotripyrazolo[3,4-f:3′,4′-j:4″,3″-n][1,4]oxazacyclopentadecin-13(10H)-one] showed an IC50 (FLT3) of 0.564 nM, an IC50 (FLT3-ITD) of 1.05 nM and an IC50 (MV-4-11 cells; Homo sapiens, MV4-11) of 15.2 nM.

“(18E)-15-(2-hydroxyethyl)-8,10,13,17-tetramethyl-2,8,9,10,11,12,13,15-octahydro-14H-3,5-ethenotripyrazolo[3,4-f:3′,4′-j:4″,3″-n][1,4]diazacyclohexadecin-14-one [Ex. 26]” gave an IC50 (CLK1) of 0.233 nM, an IC50 (CLK4) of 0.605 nM and an IC50 (CLK2) of 0.386 nM. For the same molecule, the IC50 (CLK3) was 31.1 nM and the IC50 (MV-4-11 cells) was 15 nM.

CCOc1nn(CCO)c2c1/C=C/c1n[nH]c3ccc(cc13)-c1cnn(C)c1OCCN(C)C2=O [Ex. 27, (17E)-16-ethoxy-14-(2-hydroxyethyl)-8,12-dimethyl-2,11,12,14-tetrahydro-8H-3,5-ethenotripyrazolo[3,4-f:3′,4′-j:4″,3″-n][1,4]oxazacyclopentadecin-13(10H)-one] showed an IC50 (CLK1) of 1.55 nM, an IC50 (CLK4) of 3.03 nM and an IC50 (CLK2) of 1.11 nM. For the same molecule, the IC50 (CLK3) was 108 nM and the IC50 (MV-4-11 cells; Homo sapiens, MV4-11) was 7.6 nM.

In the case of CN1CCOc2c(cnn2C)-c2ccc3[nH]nc(c3c2)/C=C/c2c(C#N)nn(C)c2C1=O [Ex. 24, (17E)-8,12,14-trimethyl-13-oxo-2,10,11,12,13,14-hexahydro-8H-3,5-ethenotripyrazolo[3,4-f:3′,4′-j:4″,3″-n][1,4]oxazacyclopentadecine-16-carbonitrile], the IC50 (FLT3) is reported as 0.23 nM, the IC50 (FLT3-ITD) is reported as 0.475 nM and the IC50 (CLK1) is reported as 0.415 nM. The IC50 (CLK4) was 0.593 nM, the IC50 (CLK2) was 0.67 nM and the IC50 (CLK3) was 92.9 nM. It also gave an IC50 (MV-4-11 cells; Homo sapiens, MV4-11) of 141 nM.

Cc1nn(C)c2c1/C=C/c1n[nH]c3ccc(cc13)-c1cnn(C)c1CN(C)CCN(C)C2=O [Ex. 15, (18E)-8,10,13,15,17-pentamethyl-2,8,9,10,11,12,13,15-octahydro-14H-3,5-ethenotripyrazolo[3,4-f:3′,4′-j:4″,3″-n][1,4]diazacyclohexadecin-14-one] was tested, and the IC50 (CLK1) was 0.157 nM, the IC50 (CLK4) was 0.53 nM and the IC50 (CLK2) was 0.161 nM. It also gave an IC50 (CLK3) of 2.77 nM and an IC50 (MV-4-11 cells; Homo sapiens, MV4-11) of 4.6 nM.

With CCn1nc(C)c2c1C(=O)N(C)CCOc1c(cnn1C)-c1ccc3[nH]nc(c3c1)/C=C/2 [compound 11, (17E)-14-ethyl-8,12,16-trimethyl-2,11,12,14-tetrahydro-8H-3,5-ethenotripyrazolo[3,4-f:3′,4′-j:4″,3″-n][1,4]oxazacyclopentadecin-13(10H)-one] the IC50 (MV-4-11 cells; Homo sapiens, MV4-11) was < 0.2 nM.

Work on Cc1nn(C(C)C)c2c1/C=C/c1n[nH]c3ccc(cc13)-c1cnn(C)c1OCCN(C)C2=O [compound 20, (17E)-8,12,16-trimethyl-14-(propan-2-yl)-2,11,12,14-tetrahydro-8H-3,5-ethenotripyrazolo[3,4-f:3′,4′-j:4″,3″-n][1,4]oxazacyclopentadecin-13(10H)-one] yielded an IC50 (FLT3) of 0.187 nM, an IC50 (FLT3-ITD) of 0.775 nM and an IC50 (MV-4-11 cells; Homo sapiens, MV4-11) of 1.1 nM.

For CCc1nn(C)c2c1/C=C/c1n[nH]c3ccc(cc13)-c1cnn(C)c1O[C@@H](C)CN(C)C2=O [Ex. 23, (10S,17E)-16-ethyl-8,10,12,14-tetramethyl-2,11,12,14-tetrahydro-8H-3,5-ethenotripyrazolo[3,4-f:3′,4′-j:4″,3″-n][1,4]oxazacyclopentadecin-13(10H)-one], the IC50 (FLT3) was 0.416 nM, the IC50 (FLT3-ITD) was 0.967 nM and the IC50 (CLK1) was 0.843 nM. For the same molecule, the IC50 (CLK4) was 1.39 nM, the IC50 (CLK2) was 0.225 nM and the IC50 (CLK3) was 5.53 nM. It also gave an IC50 (MV-4-11 cells; Homo sapiens, MV4-11) of 4.1 nM.
